Data: publication PMC6692352, “DF2726A, a new IL-8 signalling inhibitor, is able to counteract chemotherapy-induced neuropathic pain” (Scientific Reports, 2019)
pIC50: −log10 of the molar value.

Legend:
CYP 1A2 [1] = assay type: in vitro ADME
From the text: (§1) Table 1 Physicochemical and in Vitro ADME Properties of DF2726A. | column: DF2726A

CYP 1A2 [2] = molecular target: CYP 1A2 (Homo sapiens, UniProt P05177); assay type: in vitro ADME
From the text: as §1

[3] = test system: 55 targets among GCPRs, ion channels, enzymes and transporters; conditions: binding panel tested at 10 µM; ion channels up to 30 µM
Procedure: target activities towards a panel of GPCRs, enzymes, ion channels, transporters and nuclear
incubated for 60 min at 22°C with the respective reference compound in the absence or presence of
the test compound in a buffer containing 50 mM Tris-HCl (pH 7.4), 2 mM MgCl2 and 1 mM
EDTA. After incubation, the samples were filtered rapidly under vacuum through glass fiber filters
(GF/B, Packard Instruments, Meriden, CT, USA) presoaked with 0.3% polyethylenimine (PEI) and
rinsed several times with ice-cold 50 mM Tris-HCl using a 96-sample cell harvester (Unifilter,
Packard Instruments). The filters were dried, then counted for radioactivity in a scintillation counter
(Topcount, Packard Instruments) using a scintillation cocktail (Microscint-O, Packard Instruments).
The results were expressed as the percentage inhibition of the control radioligand-specific binding.
The compounds were tested at a single concentration of 10 µM in triplicate.
Tested targets were as follows:
GPCR: A2A (agonist radioligand), α1A (antagonist radioligand), α2A (antagonist radioligand), β1
(agonist radioligand), β2 (agonist radioligand), BK1 (antagonist and agonist radioligand), BK2
(antagonist and agonist radioligand), CB1 (antagonist and agonist radioligand), CB2 (antagonist and […]

[4] = test system: oxaliplatin-induced cold allodynia; assay: Oxaliplatin-induced cold allodynia (acetone test); assay type: in vivo, male Wistar rats; conditions: 30 mg/kg os for 24 days; from day 5 (P < 0.01) to final test day (P < 0.001)
Procedure: Behavioural tests were performed on male Wistar rats (200–250 g, Harlan, Italy) housed in the animal care facility at the Department of Pharmacy of the University of Naples Federico II, Italy, as previously described. Animals were housed, in a group of five, in a room with controlled temperature (22 ± 1 °C), humidity (60 ± 10%) and light (12 h per day); food and water were available ad libitum. All animals were weighted on the day of each treatment. All behavioural tests were performed between 09:00 and 17:00 h, and the animals were used only once. Animal care and manipulations were conducted in conformity with International and National law and policies (EU Directive 2010/63/EU for animal experiments, ARRIVE guidelines, and the Basel declaration including the 3R concept). The procedures reported here were approved by the Institutional Committee on the Ethics of Animal Experiments (CVS) of the University of Naples Federico II and by Ministero della Salute under protocol no. 2014-00884607. […]
Cold sensitivity was measured as the number of foot withdrawal responses after application of acetone to the dorsal surface of the paw[8],[22]. […] The mean of paw withdrawal (expressed in numbers) was determined from an average of six separate measurements. Cold responses were measured before (day -1) and then 3, 5, 7, 10, 14 and 21 days after first administration of oxaliplatin or vehicle. […]

[5] = test system: paclitaxel-induced mechanical and cold allodynia; assay: Paclitaxel-induced mechanical and cold allodynia; assay type: in vivo; conditions: 30 mg/kg os for 14 days, rats
Procedure: 5/8 inch needles; Chemil s.r.l., Padova, Italy) at 0.08, 0.5, 1, 3, 6, 12, 24, 36 and 48 h for i.v. dosing and at 0.25, 0.5, 1, 3, 6, 12, 24, 36 and 48 h for oral dosing. After each blood withdrawal, the catheters were washed with 0.15-0.2 mL of sterile physiological saline and filled with 0.03 mL of heparin saline solution (0.25 U.I/mL). The heparinized blood was immediately centrifuged (8000 RPM for 5 min at approximately 4°C) and the resultant plasma transferred into vials and stored at - 20°C until analysis. DF2726A concentrations were quantified by HLPC-MS/MS using a chromatographic method with a lower limit of quantitation of 1 ng·mL -1. Non-compartmental analysis (Gibaldi and Perrier, 1982) were used to calculate the pharmacokinetic parameters using a MKModel by Nick Holford software Version 4, (Biosoft, Ferguson, MO 63 135, USA).
DF2726A was administered at a dose of 30 mg/2ml/kg/os for 14 consecutive days starting 3 days before paclitaxel administration and continuing for 11 days after the first administration of […]
Induction of neuropathy by paclitaxel
Rats received 4 once daily intraperitoneal (i.p.) injections of paclitaxel (Tocris, Italy) (2 mg/kg/day i.p.; cumulative dose of 8 mg/kg i.p.) or vehicle (saline, 1ml/kg/day i.p.), administered on alternate days (days 0, 2, 4, and 6) as descr ibed 4. […]
Pac+Saline group. […] Data are expressed as […]

[6] = test system: CXCL1-induced hPMN chemotaxis; assay: CXCL1-induced hPMN chemotaxis, 48-well microchemotaxis chamber; assay type: cell-based, human; conditions: hPMN pre-incubated 15 min at 37°C, migration 45 min
From the text: chemotherapy-induced neuropathic pain”
Benedetti, Antonio Giordano, Annamaria Cimini, Marcello Allegretti.
Chemokines were from PeproTech (London, UK). Chemicals and cell culture reagents were from Sigma Aldrich (Saint Louis, MI, USA).
Cell isolation and culture
L’Aquila, Italy. Ethical clearance was obtained to perform these experiments. Human PMNs were […]
blood cells as previously described 1.
Cell viability, as measured by Trypan Blue dye exclusion, was greater than 98%. […]
microchemotaxis chamber, as previously described 2. Briefly, 25 µl of control medium (PBS for […]
the lower compartment of the chemotaxis chamber. […]
vehicle were seeded in the upper compartment. The two compartments were separated by 5 µm pre-size polycarbonate filter (polyvinylpyrrolidone-free for PMN chemotaxis). The chamber was […]
Physicochemical characterization […]
and a turbidity-sensing device. […]
water/HBSS to a final concentration of 10 μM. Cell membrane homogenates (48 μg protein) were […]

CYP 1A2 (Homo sapiens, UniProt P05177), sequence (P05177 whole entry): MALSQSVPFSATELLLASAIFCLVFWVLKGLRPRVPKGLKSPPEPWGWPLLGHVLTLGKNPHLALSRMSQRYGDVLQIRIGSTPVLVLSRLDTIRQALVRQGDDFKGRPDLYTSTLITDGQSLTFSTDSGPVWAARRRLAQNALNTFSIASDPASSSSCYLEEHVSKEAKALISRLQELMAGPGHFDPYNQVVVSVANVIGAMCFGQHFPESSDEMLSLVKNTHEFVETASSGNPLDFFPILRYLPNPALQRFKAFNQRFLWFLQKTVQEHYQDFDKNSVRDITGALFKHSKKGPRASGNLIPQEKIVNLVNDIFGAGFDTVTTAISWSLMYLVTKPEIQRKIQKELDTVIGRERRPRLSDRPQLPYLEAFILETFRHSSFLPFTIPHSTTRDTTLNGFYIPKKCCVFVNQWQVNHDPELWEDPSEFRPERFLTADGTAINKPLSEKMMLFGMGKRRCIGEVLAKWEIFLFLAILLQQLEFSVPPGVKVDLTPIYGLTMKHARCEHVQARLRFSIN

CC(C)(C(=O)O)c1ccc(Nc2nc(C(F)(F)F)cs2)cc1 [DF2726A]
pIC50 (CYP 1A2 [1]): < 4.00 | pIC50 (CYP 1A2 [2]): < 4.52 | Selectivity for 55 targets in counterscreens [3]: > 100 fold | Effect on oxaliplatin-induced cold allodynia (acetone paw withdrawal responses) [4]: marked attenuation of cold allodynia | Effect on paclitaxel-induced mechanical and cold allodynia [5]: prevented | pIC50 [6]: 8.10
